Here are results for 3 molecules from patent US20180200232A1, “PHARMACEUTICAL COMPOSITIONS USEFUL FOR THE TREATEMENT OF TISSUE INJURY” (MedRegen, LLC, priority 2015, published 2018).

One data set has as its target CXCR4 chomokin receptor (Homo sapiens, UniProt P61073). As to conditions: read-out: IC50, binds to and inhibits the CXCR4 receptor; cited from earlier work.
For data set [1], the system named is colony forming cells (CFCs) in mobilized peripheral blood. The data set can be described thus: CFC assay for stem cell mobilization activity in mice. In kind it is in vivo, C57/B6 mice. As to conditions: peripheral blood 3 hours after drug treatment; AMD3100 1.0 mg/kg, Tacrolimus 0.1 mg/kg; vs saline (FIG. 1). From the text:
Hematopoietic colony-forming cell (CFC) assays have been used extensively for research and clinical applications in humans and animal models as a way of quantifying and assessing the hematopoietic progenitor content of a cell sample. The stem cell mobilization activity can be measured by using CFC assays in mobilized peripheral blood samples. CFCs are able to divide and differentiate into a colony of more mature cells that can be detected by light microscopy. This allows for the quantification of multipotent stem cell lineages mobilized by pharmaceutical agents.
C57/B6 mice were divided into four treatment groups: 1) control group treated with saline; 2) AMD3100 group (1.0 mg/kg); (3) Tacrolimus group treated with
low-dose (0.1 mg/kg); and (4) AF Combination (containing AMD3100 and Tacrolimus). […] Viable PBMCs were counted and mixed with Methocult GF methylcellulose medium (StemCell Technologies, Vancouver, BC, Canada; Cat.: 03444) containing 100 Uml penicillin and 100 μg/ml streptomycin to give a final density of 1×10^5 viable PBMCs/1.5 ml of medium. […] Colony-forming units (CFUs) were counted using an inverted microscope (Carl Zeiss Microscopy, Thornwood, N.Y.) at ×4. The number of CFUs was determined by dividing the number of viable cells per milliliter by the number of plated cells per well and multiplying by the number of counted CFUs/well.

Data set [2] has as its system cell migration stimulated by CXCL12. To be noted: cited from earlier work.
In data set [3] the test system is renal allograft rejection. The data set can be described thus: mismatched kidney transplantation in miniature swine. The data set is classed as in vivo. As to conditions: for Creatinine (serum): at time of death; for effect on survival: drug alone; for Survival: one animal per value; for post-operative day of death or euthanasia: single perioperative course. From the text: Animals—SLA-identified donor and recipient swine (weight 50-80 kg) were obtained from Transplantation Biology Research Center of Massachusetts General Hospital, Boston, Mass. The immunogenetic characteristics of these swine have been described previously (30). Two-haplotype full MHC class I and class II mismatched donors and recipients were used for kidney transplantation. […] Institutional review board (Animal Care and Use Committee) approval was obtained for this study. All animal care and procedures were in compliance with the “Principles of Laboratory Animal Care” formulated by the National Society of Medical Research and the “Guide for the Care and Use of Laboratory Animals” prepared by the Institute of Laboratory Animal Resources, National Research Council, and published by the National Academies Press, revised 2011.
Kidney transplantation—The surgical procedure used for kidney transplantation has been described in Kirkman R L, et al. Transplantation in miniature swine. VI. Factors influencing survival of renal allografts. Transplantation 1979; 28: 18-23, the entire disclosure of which is herein incorporated by reference. Briefly, donor kidneys were flushed and persevered in cold saline for 3-6 h before reperfusion. The recipients underwent bilateral nephrectomy. […] The kidney transplantation was completed with a vesicoureteral anastomosis. An indwelling Silastic central venous catheter was placed surgically into the external or internal jugular vein. The catheter facilitated frequent blood sampling for in vitro assays and for monitoring of renal function and whole-blood Tacrolimus levels.
Rejection monitoring—Kidney function was monitored by serial serum creatinine levels. Serum creatinine and blood urea nitrogen levels were analyzed in the Phenotyping Laboratory of the Department of Comparative Medicine at Johns Hopkins. Biopsies were performed on transplant recipients using needle core biopsy via an open or percutaneous ultrasound-guided approach. Renal allograft rejection was defined as sustained rise in serum creatinine to >10 mg/dL or anuria (normal laboratory value for swine serum creatinine is 1-3 mg/dL).
Histopathological examination—Core needle biopsies or wedge biopsies were performed on renal allografts. Scoring of acute rejection was based on the Banff classification; see, e.g., Solez K, et al. Banff 07 classification of renal allograft pathology: Updates and future directions. Am J Transplant 2008; 8: 753-760, the entire disclosure of which is herein incorporated by reference. Masson trichrome staining was done according to standard protocols.
SLA-identified and -mismatched inbred miniature swine were subjected to bilateral nephrectomy and transplantation (FIG. 1B) as described in Sachs D H, et al. Transplantation in miniature swine. I. Fixation of the major histocompatibility complex. Transplantation 1976; 22: 559-567, the entire disclosure of which is herein incorporated by reference. […] VI. Factors influencing survival of renal allografts. Transplantation 1979; 28: 18-23, supra. Five experimental treatment groups were defined as follows, and each group received subcutaneous injections on days 0, 2, 4, 6, and 8 post-transplantation: (1) saline (n=1); (2) low-dose (0.03 mg/kg) Tacrolimus alone (n=3); (3) AMD3100 1 mg/kg alone (n=3); (4) AF Combination treatment (AMD3100 1 mg/kg and Tacrolimus 0.03 mg/kg) (n=1); and (5) AF Combination treatment as in group 4 but with repeat of the 8-day course at 1, 2, and 3 months post-transplantation.

Data set [4] can be described thus: solubility of Tacrolimus powder in water solutions. The data set is classed as physicochemical.

Values joined by “and” are separate entries in the source; they are usually repeats but may differ in a detail not shown here. Identical values can stand only once.

CXCR4 chomokin receptor, sequence (P61073 whole entry): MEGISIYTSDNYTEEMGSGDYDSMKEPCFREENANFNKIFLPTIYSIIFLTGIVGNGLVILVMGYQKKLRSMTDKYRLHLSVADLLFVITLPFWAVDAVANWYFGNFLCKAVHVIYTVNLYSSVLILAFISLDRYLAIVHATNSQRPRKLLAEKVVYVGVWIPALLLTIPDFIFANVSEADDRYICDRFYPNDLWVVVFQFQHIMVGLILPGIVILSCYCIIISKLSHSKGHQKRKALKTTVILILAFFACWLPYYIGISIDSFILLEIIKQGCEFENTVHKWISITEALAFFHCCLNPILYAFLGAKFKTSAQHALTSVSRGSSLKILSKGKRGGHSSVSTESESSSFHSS

A word on the IC50: it is the concentration that inhibits the measured activity by half. Take 4F-benzoyl-TN14003 [BKT140]: the IC50 on CXCR4 chomokin receptor was roughly 1 nM.
For the molecule `c1cc(CN2CCCNCCNCCCNCC2)ccc1CN1CCCNCCNCCCNCC1` [AMD3100, 1,1′-[1,4-phenylenebis(methylene)]bis¬1,4,8,11-tetraazacyclo-tetradecane], in data set [1], the “number of colony forming cells (CFCs)” value was “significantly increased”. Also, in data set [2], the IC50 is 51 ± 17 nM. Moreover, in data set [3] (no re-treatment, listed as AMD3100 only), the “Creatinine (serum)” value was 22.3 mg/dL and 17.3 mg/dL and 26.4 mg/dL. In addition, in data set [3], the effect on survival result is listed as “no prolongation of survival”; the “post-operative day of death or euthanasia” value is 9 POD and 10 POD and 16 POD. Also, in data set [3] (no re-treatment, s.c. days 0, 2, 4, 6, 8, listed as AMD3100 only), the Survival is 10 days and 16 days and 9 days.
Regarding `C=CC[C@@H]1/C=C(\C)C[C@H](C)C[C@H](OC)[C@H]2O[C@@](O)(C(=O)C(=O)N3CCCC[C@H]3C(=O)O[C@H](/C(C)=C/[C@@H]3CC[C@@H](O)[C@H](OC)C3)[C@H](C)[C@@H](O)CC1=O)[C@H](C)C[C@@H]2OC` [Tacrolimus], the “solubility in water solutions (e.g., saline)” value in data set [4] was “poor solubility”. Also, the “number of colony forming cells (CFCs)” value in data set [1] is “significantly increased”. Further, the Survival is 56 days in data set [3] (Re-Treatment Yes); 28 days and 27 days in data set [3] (no re-treatment, s.c. days 0, 2, 4, 6, 8, listed as Tacro only). Besides, the serum creatinine level came to 8.3 mg/dL in data set [3] (animal 21343, POD 40 after repeat dosing); 9.8 mg/dL in data set [3] (animal 21343, POD 56); 12.3 mg/dL in data set [3] (animal 21343, before effect of repeat dosing at 1 month). Further, the “Creatinine (serum)” value in data set [3] (Re-Treatment Yes) is 9.8 mg/dL; in data set [3] (no re-treatment, listed as Tacro only), 11.5 mg/dL and 9.9 mg/dL. The values for the effect on survival entry in data set [3] and in data set [3] (listed as FK506) were “prolongation of survival” and “prolonged survival but was ineffective against late rejection”, respectively. The “post-operative day of death” value in data set [3] (redosing at 30 days) was found to be 56 POD. For the same molecule, the “post-operative day of death or euthanasia” value in data set [3] was 27 POD and 28 POD.
